Measurements as given in patent US20060069132A1, “Azolecarboxamide herbicides” (priority 2004, published 2006).

How the values were obtained:
barnyardgrass [1] = test: Test B pre-/postemergence herbicide test; type: in vivo, Echinochloa crus-galli
Method in brief: (§1)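 Species tested were Echinochloa crus-galli, Ipomoea coccinea, Xanthium strumarium and Oryza sativa, treated both before emergence and at the 1- to 4-leaf stage; rice and barnyardgrass were also tested under flooding at 2 leaves. Greenhouse incubation lasted 13–15 days before visual 0–100 scoring.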

Surinam grass = test: Test B pre-/postemergence herbicide test; type: in vivo, Urochloa decumbens
Method in brief: (§2)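 Formulation: non-phytotoxic solvent mix with surfactant. Timing: preemergence on seed and postemergence on 2–18 cm plants, applied concurrently. Readout after 13–15 d greenhouse: visual 0–100 control rating against controls.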

cocklebur = test: Test B pre-/postemergence herbicide test; type: in vivo, Xanthium strumarium
Method in brief: as §1

corn = test: Test B pre-/postemergence herbicide test; type: in vivo, Zea mays
Method in brief: as §2

large crabgrass = test: Test B pre-/postemergence herbicide test; type: in vivo, Digitaria sanguinalis
Method in brief: as §2

giant foxtail = test: Test B pre-/postemergence herbicide test; type: in vivo, Setaria faberi
Method in brief: as §2

lambsquarters = test: Test B pre-/postemergence herbicide test; type: in vivo, Chenopodium album
Method in brief: as §2

morningglory = test: Test B pre-/postemergence herbicide test; type: in vivo, Ipomoea coccinea
Method in brief: as §1

pigweed = test: Test B pre-/postemergence herbicide test; type: in vivo, Amaranthus retroflexus
Method in brief: as §2

blackgrass = test: Test B postemergence herbicide test; type: in vivo, Alopecurus myosuroides
Method in brief: (§3)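 Plants grow to 1- to 4-leaf stage (2–18 cm) for postemergence spraying, or to 2-leaf stage for the paddy test. Formulated compound is applied. Greenhouse holding lasts 13–15 days. Response is scored visually relative to controls, 0 no effect to 100 complete control; a dash means no result.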

wheat = test: Test B postemergence herbicide test; type: in vivo, Triticum aestivum; parameters: key to Wheat plant response rating: 0 = no effect, 100 = complete control
Method in brief: (§4)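 Formulated test chemicals went onto postemergence plants measuring 2 to 18 cm, at one to four leaves. For the paddy assay, species had reached two leaves. Scoring took place 13–15 days later by eye, relative to untreated plants, using 0 for no effect up to 100 for full control.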

wild oat = test: Test B postemergence herbicide test; type: in vivo, Avena fatua
Method in brief: as §4

rice = test: Test B flooded paddy test; type: in vivo, Oryza sativa; settings: 1000 g ai/ha, scale 0 to 100 (0 no effect, 100 complete control)
Method in brief: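 Scale 0–100: zero equals no visible effect, 100 complete control, judged by eye relative to controls. Timing: 13 to 15 days in greenhouse post-treatment. Growth stage at spraying: two leaves (paddy) or one to four leaves, 2–18 cm (postemergence).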

[2] = test system: small flower umbrella sedge; test: Test B flooded paddy test; type: in vivo, Cyperus difformis; settings: 1000 g ai/ha, scale 0 to 100 (0 no effect, 100 complete control)
Method in brief: as §3

ducksalad = test: Test B flooded paddy test; type: in vivo, Heteranthera limosa; settings: 1000 g ai/ha, scale 0 to 100 (0 no effect, 100 complete control)
Method in brief: as §3

barnyardgrass [3] = test: Test B flooded paddy test; type: in vivo, Echinochloa crus-galli; settings: 1000 g ai/ha, scale 0 to 100 (0 no effect, 100 complete control)
Method in brief: as §3

[4] = 125 g ai/ha; 0 is no effect, 100 is complete control; preemergence
[5] = 125 g ai/ha; visual rating, scale 0 (no effect) to 100 (complete control); postemergence
[6] = 500 g ai/ha; visual rating, 0 = no effect, 100 = complete control; preemergence
[7] = postemergence, 500 g ai/ha; scale 0 to 100, 0 is no effect, 100 is complete control
[8] = 125 g ai/ha; 0 = no effect, 100 = complete control; preemergence
[9] = 500 g ai/ha; visual rating 0-100, 0 no effect, 100 complete control; preemergence
[10] = postemergence, 125 g ai/ha; visual rating, scale 0 (no effect) to 100 (complete control)
[11] = postemergence, 500 g ai/ha; visual rating, scale 0 (no effect) to 100 (complete control)

CCC1=NN(C(C)(C)C)CC1C(=O)Nc1cc(C(=O)N(C)C)ccc1F (racemic) [Compound 343]
0: Cocklebur plant response rating (cocklebur; [5]) | Blackgrass plant response rating (blackgrass; [5]) | Wheat plant response rating (wheat; [5]) | Wheat plant response rating (wheat; [7])
80: Morningglory plant response rating (morningglory; [7]) | Rice plant response rating (rice)
70: Plant response rating (0 to 100 scale), Barnyardgrass (barnyardgrass [1]; [4])
50: Barnyardgrass plant response rating (barnyardgrass [1]; [7]) | Plant response rating (0 to 100 scale), Surinam Grass (Surinam grass; [4]) | Crabgrass, Large plant response rating (large crabgrass; [7]) | Foxtail, Giant plant response rating (giant foxtail; [7]) | Plant response rating (0 to 100 scale), Morningglory (morningglory; [4])
40: Surinam Grass plant response rating (Surinam grass; [7]) | Plant response rating (0 to 100 scale), Crabgrass, Large (large crabgrass; [4]) | Lambsquarters plant response rating (lambsquarters; [5]) | Pigweed plant response rating (pigweed; [5])
10: Barnyardgrass plant response rating (barnyardgrass [1]; [5]) | Surinam Grass plant response rating (Surinam grass; [5]) | Corn plant response rating (corn; [5]) | Blackgrass plant response rating (blackgrass; [7]) | Oat, Wild plant response rating (wild oat; [5]) | Oat, Wild plant response rating (wild oat; [7])
30: Corn plant response rating (corn; [7]) | Plant response rating (0 to 100 scale), Foxtail, Giant (giant foxtail; [4]) | Foxtail, Giant plant response rating (giant foxtail; [5]) | Morningglory plant response rating (morningglory; [5])
20: Cocklebur plant response rating (cocklebur; [7]) | Crabgrass, Large plant response rating (large crabgrass; [5])
100: Plant response rating, Barnyardgrass (barnyardgrass [1]; [6]) | Plant response rating, Surinam Grass (Surinam grass; [6]) | Plant response rating, Crabgrass, Large (large crabgrass; [6]) | Plant response rating, Foxtail, Giant (giant foxtail; [6]) | Plant response rating, Lambsquarters (lambsquarters; [6]) | Lambsquarters plant response rating (lambsquarters; [7]) | Plant response rating, Morningglory (morningglory; [6]) | Plant response rating, Pigweed (pigweed; [6])
90: Plant response rating, Cocklebur (cocklebur; [6]) | Plant response rating (0 to 100 scale), Lambsquarters (lambsquarters; [4]) | Plant response rating (0 to 100 scale), Pigweed (pigweed; [4]) | Pigweed plant response rating (pigweed; [7]) | Sedge, Umbrella plant response rating [2] | Ducksalad plant response rating (ducksalad) | Barnyardgrass plant response rating (barnyardgrass [3])

CCNC(=O)c1cccc(NC(=O)c2sc(C(C)(C)C)nc2C)c1 [Compound 198]
50: Plant response rating, Surinam Grass (Surinam grass; [9]) | Pigweed plant response rating (pigweed; [10]) | Pigweed plant response rating (pigweed; [11])
80: Crabgrass, Large plant response rating (0 to 100 scale) (large crabgrass; [8]) | Plant response rating, Morningglory (morningglory; [9]) | Morningglory plant response rating (morningglory; [11])
10: Surinam Grass plant response rating (0 to 100 scale) (Surinam grass; [8]) | Crabgrass, Large plant response rating (large crabgrass; [10]) | Morningglory plant response rating (0 to 100 scale) (morningglory; [8]) | Blackgrass plant response rating (blackgrass; [11]) | Wheat plant response rating (wheat; [11])
0: Barnyardgrass plant response rating (barnyardgrass [1]; [10]) | Cocklebur plant response rating (0 to 100 scale) (cocklebur; [8]) | Corn plant response rating (0 to 100 scale) (corn; [8]) | Blackgrass plant response rating (blackgrass; [10]) | Wheat plant response rating (wheat; [10])
60: Cocklebur plant response rating (cocklebur; [10]) | Morningglory plant response rating (morningglory; [10])
40: Barnyardgrass plant response rating (0 to 100 scale) (barnyardgrass [1]; [8]) | Plant response rating, Corn (corn; [9])
100: Plant response rating, Crabgrass, Large (large crabgrass; [9]) | Plant response rating, Foxtail, Giant (giant foxtail; [9]) | Lambsquarters plant response rating (0 to 100 scale) (lambsquarters; [8]) | Plant response rating, Lambsquarters (lambsquarters; [9]) | Plant response rating, Pigweed (pigweed; [9])
30: Barnyardgrass plant response rating (barnyardgrass [1]; [11]) | Foxtail, Giant plant response rating (giant foxtail; [11]) | Oat, Wild plant response rating (wild oat; [11])
90: Plant response rating, Barnyardgrass (barnyardgrass [1]; [9]) | Cocklebur plant response rating (cocklebur; [11]) | Pigweed plant response rating (0 to 100 scale) (pigweed; [8])
20: Surinam Grass plant response rating (Surinam grass; [10]) | Surinam Grass plant response rating (Surinam grass; [11]) | Plant response rating, Cocklebur (cocklebur; [9]) | Corn plant response rating (corn; [10]) | Crabgrass, Large plant response rating (large crabgrass; [11]) | Foxtail, Giant plant response rating (0 to 100 scale) (giant foxtail; [8]) | Foxtail, Giant plant response rating (giant foxtail; [10]) | Oat, Wild plant response rating (wild oat; [10]) | Rice plant response rating (rice; visual rating, 13 to 15 days) | Barnyardgrass plant response rating (barnyardgrass [3]; visual rating, 13 to 15 days)
70: Corn plant response rating (corn; [11]) | Lambsquarters plant response rating (lambsquarters; [10]) | Lambsquarters plant response rating (lambsquarters; [11]) | Sedge, Umbrella plant response rating ([2]; visual rating, 13 to 15 days) | Ducksalad plant response rating (ducksalad; visual rating, 13 to 15 days)
